Values belong to the compound of their own block, whether it stands above or below them. Activity calls are given as the source filed them. No cut-off for these calls is given here.
How the values were obtained:
[1] = Glutathione reactivity of compound at pH 7.5 measured by HPLC-MS assay; format: physicochemical
[2] = Thiol reactivity of the compound assessed as TNB2-depletion at 200 uM measured upto 24 hrs by TNB2-depletion assay; format: physicochemical
[3] = target: T1, Proteasome subunit beta type-8 (Homo sapiens) (UniProt P28062); assay: Inhibition of human chymotrypsin-like beta 5i subunit of iCP assessed as residual activity using suc-LLVY-AMC as flurogenic substrate at 150 uM for 90 mins by fluorescence-based assay
T1 sequence (whole entry): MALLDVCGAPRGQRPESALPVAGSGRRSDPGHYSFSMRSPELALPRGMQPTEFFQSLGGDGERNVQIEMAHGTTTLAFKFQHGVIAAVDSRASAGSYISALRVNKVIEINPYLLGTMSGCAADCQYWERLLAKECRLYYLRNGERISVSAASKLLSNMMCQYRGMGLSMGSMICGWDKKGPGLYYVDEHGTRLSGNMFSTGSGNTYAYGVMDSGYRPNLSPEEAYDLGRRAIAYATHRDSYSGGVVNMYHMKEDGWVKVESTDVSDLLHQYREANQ

[4] = Glutathione reactivity of compound at pH 9 measured by HPLC-MS assay; format: physicochemical
[5] = target: T2, Proteasome Macropain subunit MB1 (Homo sapiens) (UniProt P28074); assay: Inhibition of beta 5 chymotrypsin-like activity (unknown origin) at 100 uM using Suc-LLVY-AMC as substrate for 90 mins by fluorescence based assay; design: scale not given: the % may be the effect or the level left
T2 sequence (whole entry): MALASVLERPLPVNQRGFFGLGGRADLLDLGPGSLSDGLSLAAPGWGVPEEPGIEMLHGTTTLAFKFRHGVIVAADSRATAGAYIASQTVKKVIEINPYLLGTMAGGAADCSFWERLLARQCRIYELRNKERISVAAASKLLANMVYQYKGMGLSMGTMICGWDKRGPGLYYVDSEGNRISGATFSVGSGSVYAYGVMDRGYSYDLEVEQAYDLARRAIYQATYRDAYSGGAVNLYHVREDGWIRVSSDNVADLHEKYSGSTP

[6] = Glutathione reactivity of compound at pH 8 measured by HPLC-MS assay; format: physicochemical
[7] = Glutathione reactivity of compound at pH 8.5 measured by HPLC-MS assay; format: physicochemical
[8] = target: T1, Proteasome subunit beta type-8 (Homo sapiens); assay: Inhibition of human chymotrypsin-like beta 5i subunit of iCP assessed as residual activity using suc-LLVY-AMC as flurogenic substrate at 100 uM for 90 mins by fluorescence-based assay
[9] = Solubility of the compound in buffer; format: physicochemical
Homo sapiens [10] = species: Homo sapiens; assay: Selectivity ratio of IC50 for human beta2 subunit of cCP Pto IC50 for human chymotrypsin-like beta 5i subunit of iCP
[11] = target: T3, Proteasome Macropain subunit MB1 (Homo sapiens, UniProt P28074); assay: Inhibition of beta 5 chymotrypsin-like activity (unknown origin) using Suc-LLVY-AMC as substrate for 90 mins by fluorescence based assay
T3 sequence (P28074 whole entry): T2 sequence (whole entry)

Homo sapiens [12] = species: Homo sapiens; assay: Selectivity ratio of IC50 for human beta2i subunit of iCP Pto IC50 for human chymotrypsin-like beta 5i subunit of iCP
Homo sapiens [13] = species: Homo sapiens; assay: Selectivity ratio of IC50 for human beta1i subunit of iCP Pto IC50 for human chymotrypsin-like beta 5i subunit of iCP
[14] = target: T4, Proteasome subunit beta type-8 (Homo sapiens, UniProt P28062); assay: Inhibition of human chymotrypsin-like beta 5i subunit of iCP using suc-LLVY-AMC as flurogenic substrate for 90 mins by fluorescence-based assay
T4 sequence (P28062 whole entry): T1 sequence (whole entry)

[15] = Solubility of the compound in DMSO; format: physicochemical
[16] = target: T1, Proteasome subunit beta type-8 (Homo sapiens); assay: Inhibition of human chymotrypsin-like beta 5i subunit of iCP assessed as cysteine-48 labelling by Ellman's method

- Drug metabolism [1]: Metabolite_Notdetected
- Drug metabolism [2]: Metabolite_Notdetected
- Activity [3]: 80%
- Drug metabolism [4]: Metabolite_Notdetected
- Activity [5]: 100%
- Drug metabolism [6]: Metabolite_Notdetected
- Drug metabolism [7]: Metabolite_Notdetected
Structure (SMILES): Cn1c(S)nc2cc(Cl)ccc21

- Activity [8]: 55%
- solubility [9]: Insoluble
Structure (SMILES): Cc1ccc2nc(S)sc2c1

Structure (SMILES): O=S(=O)(F)c1nc2ccccc2s1
- Ratio IC50 (Homo sapiens [10]): 7
- IC50 [11]: 81 µM
- Ratio IC50 (Homo sapiens [12]): 7
- Ratio IC50 (Homo sapiens [13]): 7
- IC50 [14]: 11 µM

- solubility [15]: Insoluble
Structure (SMILES): Sc1nc2ccc(Cl)cc2s1

- solubility [15]: Insoluble
Structure (SMILES): O=C(CCc1cccnc1)Nc1cccc2[nH]c(=S)oc12

- IC50 [11]: 45 µM
- inhibition [16]: Active
- IC50 [14]: 9.1 µM
Structure (SMILES): N#Cc1nc2ccc(Cl)cc2o1

- Activity [8]: 39%
- solubility [9]: Insoluble
Structure (SMILES): Cn1c(=S)[nH]c2ccc(NC(=O)c3ccccc3)cc21

— ChEMBL document CHEMBL4819103, “Discovery of selective fragment-sized immunoproteasome inhibitors” (Eur J Med Chem, 2021)
